# Counter-ions that a name gives are not always drawn.
# Assays:
# [1] = test system: Rec1_1 (MspI AAGC 288) mRNA; assay: quantified RT-PCR, Rec1_1; assay type: in vivo, rabbit; details: for Relative Abundance Rec1_1, 20 pg F: hypercholesterolemic plus lercanidipine racemate, eight weeks, H2 (normocholesterolemic)=1.0
# Experimental: (§1) Nineteen of the isolated DST clones were further validated using RT-PCR analyses; the data are presented in FIGS. 6-24 and in Tables 5-23, below. For each DST examined, the optimal annealing temperature and reagent conditions were determined for the corresponding set of primers (see Table 25) based on results from a preliminary experiment. In eight separate reactions, each set of primers was assayed to find the optimal conditions by adjusting the following four parameters: primer concentration, dNTP concentration, MgCl2 concentration, and number of Taq polymerase units. Once optimal conditions were determined, each DST was run in duplicate multiple simultaneous reactions which usually included at least four dilutions of template (cDNA library), plus control reactions lacking template, and six sequential data points for numbers of cycles.
# (§2) Reactions were performed using “Hot Start” PCR with the Clontech TaqStart antibody system (Cat. #5400-1). Each reaction contained 1 ml of the cDNA library dilution as template, determined amounts of AmpliTaq DNA polymerase (cat. #N808-0156), MgCl2, dNTPs (GibcoBRL cat. #10297-018), primer, and Clontech TaqStart Antibody in a 20 ml final reaction volume using 10×Taq buffer II (without MgCl2). Typically, a master mix containing all components except the template was prepared and aliquoted. Various templates were then added to these master mix samples and 20 ml volumes were subsequently dispensed into individual reaction tubes. At various times during the PCR run, tubes were removed sequentially on a predetermined schedule in order to quantitate expression of the target DST over a “window” of cycle times. After amplification, the samples were quantified via fluorimetry.
# (§3) PCR was performed at annealing temperatures that were five degrees above the average melting temperature of each primer pair. For primers greater than 10 bases (in a 0.05M salt solution), melting temperature was calculated using the following formula: Tm=59.9+41[% GC]−[675/Primer Length], where %GC is the decimal value. Following determination of the average melting temperature of the primer pair, the annealing temperature was determined by adding five degrees to the average melting temperature. PCR was performed using the following program: 1) 95 degrees Celsius, 3 minutes; 2) 95 degrees Celsius, 30 seconds; 3) TM+5 degrees Celsius, 30 seconds; 4) 72 degrees Celsius, for a time dependent on target length at 16 bp/second; 5) repeat steps 2-4 33 more cycles; 6) 72 degrees Celsius, 3 minutes; 7) 14 degrees Celsius, forever.
# (§4) Following temperature cycling, 2 ml of the PCR reaction was added to 140 ml of a 1:280 dilution of PicoGreen (Molecular Probes cat. #P-11495 (10×100 ml)) in TE pH 7.5 in a 96-well Costar UV microtiter plate (Fisher cat. #07-200623). The samples were mixed gently for 1.5 minutes and allowed to equilibrate at room temperature in the dark for 15 minutes. The concentration of the PCR products was quantified by fluorimetry using a PerSeptive Biosystems CytoFluor series 4000 multi-well plate reader.
# Background fluorescence was determined by using duplicate control samples that were cycled with all reaction components except the template. The mean value from these duplicate background control samples was subtracted from the corresponding experimental values prior to analyzing results. The sensitivity of the PicoGreen dsDNA assay is reported to be 250 pg/ml (50 pg dsDNA in a […] assay volume) using a fluorescence microplate reader such as was used in these measurements.
# DST clone Rec1—1 was one of the clones further evaluated by RT-PCR. The TOGA analysis of clone Rec1—1, identified as MspI AAGC 288, is discussed above and illustrated in FIGS. 1 and 2. The results of the quantified RT-PCR for Rec1—1 are shown in FIG. 6 and in Table 5 (normalized to the normocholesterolemic control value (“H2”) at each time point). […]
# [2] = test system: REC1_3 (MspI ACGG 162) mRNA; assay: quantified RT-PCR, Rec1_3; assay type: in vivo, rabbit; details: for Relative Abundance Rec1_3, 500 pg F: hypercholesterolemic plus lercanidipine racemate, eight weeks, H2 (normocholesterolemic)=1.0
# Experimental: as §1, §2, §3, §4
# (§5) Background fluorescence was determined by using duplicate control samples that were cycled with all reaction components except the template. The mean value from these duplicate background control samples was subtracted from the corresponding experimental values prior to analyzing results. The sensitivity of the PicoGreen dsDNA assay is reported to be 250 pg/ml (50 pg dsDNA in a […] assay volume) using a fluorescence microplate reader such as was used in these measurements. […]
# [3] = test system: REC1_18 (MspI TGGT 241) mRNA; assay: quantified RT-PCR, Rec1_18; assay type: in vivo, rabbit; details: for Relative Abundance Rec1_18, 20 pg F: hypercholesterolemic plus lercanidipine racemate, eight weeks, H2 (normocholesterolemic)=1.0
# Experimental: as §1, §2, §3, §4, §5
# REC1_5 (AGTG 184) mRNA = assay: quantified RT-PCR, Rec1_5; assay type: in vivo, rabbit; details: for Relative Abundance Rec1_5, 100 pg F: hypercholesterolemic plus lercanidipine racemate, eight weeks, H2 (normocholesterolemic)=1.0
# Experimental: as §1, §2, §3, §4, §5
# REC1_16 (TCGG 195) mRNA = assay: quantified RT-PCR, Rec1_16; assay type: in vivo, rabbit; details: for Relative Abundance Rec1_16, 20 pg F: hypercholesterolemic plus lercanidipine racemate, eight weeks, H2 (normocholesterolemic)=1.0
# Experimental: as §1, §2, §3, §4
# Background fluorescence was determined by using duplicate control samples that were cycled with all reaction components except the template. […] The sensitivity of the PicoGreen dsDNA assay is reported to be 250 pg/ml (50 pg dsDNA in a […] assay volume) using a fluorescence microplate reader such as was used in these measurements. […]
# Rec1_20 (TTAC 210) mRNA = assay: quantified RT-PCR, Rec1_20; assay type: in vivo, rabbit; details: for Relative Abundance Rec1_20, 20 pg F: hypercholesterolemic plus lercanidipine racemate, eight weeks, H2 (normocholesterolemic)=1.0
# Experimental: as §1, §2, §3, §4, §5
# Rec1_12 (GCCC 232) mRNA = assay: quantified RT-PCR, Rec1_12; assay type: in vivo, rabbit; details: for Relative Abundance Rec1_12, 20 pg F: hypercholesterolemic plus lercanidipine racemate, eight weeks, H2 (normocholesterolemic)=1.0
# Experimental: as §1, §2, §3, §4, §5
# smooth muscle cell = details: in vitro (Corsini et al. 1996); cited from earlier work
# [4] = test system: cholesterol acyl transferase; details: Soma et al. 1998; cited from earlier work
# [5] = hypercholesterolemic animals receiving lercanidipine racemate
# [6] = hypercholesterolemic animals receiving lercanidipine
structure (smiles),measurement,setting,value
"COC(=O)C1=C(C)NC(C)=C(C(=O)OC(C)(C)CN(C)CCC(c2ccccc2)c2ccccc2)C1c1cccc([N+](=O)[O-])c1 (racemic) [lercanidipine, lercanidipine hydrochloride]","Relative Abundance Rec1_1, 20 pg F",[1]; cycle 26,7.7
same,"Relative Abundance Rec1_1, 20 pg F",[1]; cycle 28,4.9
same,"Relative Abundance Rec1_1, 20 pg F",[1]; cycle 30,3.2
same,"Relative Abundance Rec1_1, 20 pg F",[1]; cycle 32,2.1
same,"Relative Abundance Rec1_1, 20 pg F",[1]; cycle 34,1.5
same,"expression of Rec1_1 at 8 weeks (RT-PCR study), in words",[1]; [5],elevated
same,"Relative Abundance Rec1_3, 500 pg F",[2]; cycle 26,0.0
same,"Relative Abundance Rec1_3, 500 pg F",[2]; cycle 28,0.0
same,"Relative Abundance Rec1_3, 500 pg F",[2]; cycle 30,0.0
same,"Relative Abundance Rec1_3, 500 pg F",[2]; cycle 32,0.1
same,"Relative Abundance Rec1_3, 500 pg F",[2]; cycle 34,0.4
same,"expression of Rec1_3 at 8 weeks (RT-PCR study), in words","[2]; hypercholesterolemic animals receiving lercanidipine racemate, compared with hypercholesterolemic animals at 14 days",lower
same,"Relative Abundance Rec1_18, 20 pg F",[3]; cycle 24,169.0
same,"Relative Abundance Rec1_18, 20 pg F",[3]; cycle 26,5.8
same,"Relative Abundance Rec1_18, 20 pg F",[3]; cycle 28,1.0
same,"Relative Abundance Rec1_18, 20 pg F",[3]; cycle 30,1.0
same,"Relative Abundance Rec1_18, 20 pg F",[3]; cycle 32,1.4
same,"Relative Abundance Rec1_18, 20 pg F",[3]; cycle 34,1.1
same,"expression of Rec1_18 at 8 weeks (RT-PCR study), in words",[3]; [5],somewhat elevated
same,"Relative Abundance Rec1_5, 100 pg F",REC1_5 (AGTG 184) mRNA; cycle 24,512.5
same,"Relative Abundance Rec1_5, 100 pg F",REC1_5 (AGTG 184) mRNA; cycle 26,805.0
same,"Relative Abundance Rec1_5, 100 pg F",REC1_5 (AGTG 184) mRNA; cycle 28,0.2
same,"Relative Abundance Rec1_5, 100 pg F",REC1_5 (AGTG 184) mRNA; cycle 30,0.6
same,"Relative Abundance Rec1_5, 100 pg F",REC1_5 (AGTG 184) mRNA; cycle 32,1.1
same,"Relative Abundance Rec1_5, 100 pg F",REC1_5 (AGTG 184) mRNA; cycle 34,1.0
same,"expression of Rec1_5 at 8 weeks (RT-PCR study), in words","REC1_5 (AGTG 184) mRNA; hypercholesterolemic animals receiving lercanidipine racemate, at 28-30 cycles",decreased
same,"Relative Abundance Rec1_16, 20 pg F",REC1_16 (TCGG 195) mRNA; cycle 28,0.0
same,"Relative Abundance Rec1_16, 20 pg F",REC1_16 (TCGG 195) mRNA; cycle 30,0.2
same,"Relative Abundance Rec1_16, 20 pg F",REC1_16 (TCGG 195) mRNA; cycle 32,0.6
same,"Relative Abundance Rec1_16, 20 pg F",REC1_16 (TCGG 195) mRNA; cycle 34,0.3
same,"expression of Rec1_16 at 8 weeks (RT-PCR study), in words",REC1_16 (TCGG 195) mRNA; [6],decreased
same,"Relative Abundance Rec1_20, 20 pg F",Rec1_20 (TTAC 210) mRNA; cycle 26,0.0
same,"Relative Abundance Rec1_20, 20 pg F",Rec1_20 (TTAC 210) mRNA; cycle 28,0.1
same,"Relative Abundance Rec1_20, 20 pg F",Rec1_20 (TTAC 210) mRNA; cycle 30,0.2
same,"Relative Abundance Rec1_20, 20 pg F",Rec1_20 (TTAC 210) mRNA; cycle 32,0.2
same,"Relative Abundance Rec1_20, 20 pg F",Rec1_20 (TTAC 210) mRNA; cycle 34,0.2
same,"expression of Rec1_20 at 8 weeks (RT-PCR study), in words",Rec1_20 (TTAC 210) mRNA; [6],decreased
same,"Relative Abundance Rec1_12, 20 pg F",Rec1_12 (GCCC 232) mRNA; cycle 26,0.1
same,"Relative Abundance Rec1_12, 20 pg F",Rec1_12 (GCCC 232) mRNA; cycle 28,0.0
same,"Relative Abundance Rec1_12, 20 pg F",Rec1_12 (GCCC 232) mRNA; cycle 30,0.4
same,"Relative Abundance Rec1_12, 20 pg F",Rec1_12 (GCCC 232) mRNA; cycle 32,0.6
same,"Relative Abundance Rec1_12, 20 pg F",Rec1_12 (GCCC 232) mRNA; cycle 34,0.6
same,"Relative Abundance Rec1_12, 20 pg F",Rec1_12 (GCCC 232) mRNA; cycle 36,0.6
same,"expression of Rec1_12 at 8 weeks (RT-PCR study), in words",Rec1_12 (GCCC 232) mRNA; [6],decreased
same,smooth muscle cell migration and proliferation,smooth muscle cell,effectively reduce
same,cholesterol acyl transferase activity,[4],modulate
